One data set concerns the target CYP3A4 (Homo sapiens, UniProt P08684). The experiment in a line: CYP3A4 TDI. It counts as in vitro ADME.
In another data set the test system is TK6. Nature of the data set: in vitro TK6 MNT. It counts as cell-based.
Data set [1] deals with WRN protein in MSI and MSS cells. The experiment in a line: WRN degradation (immunoblot, ELISA). It counts as cell-based, human. Here is the method: A list of all of the antibodies is provided in Supplementary Table 2. […] The plates were washed in PBS and 200 µl per well of blocking reagent added (PBS, 0.05% Tween-20, 5% skimmed milk), and the plates were incubated for a minimum of 2 h at room temperature. […] The plates were then washed and 50 µl of secondary antibody per well diluted in blocking buffer was added and the plates were incubated overnight at 4 °C. The next day, 50 µl of tertiary antibody was added per well buffer and the plates were incubated for 2 h at room temperature. […] The plates were shaken and luminescence was detected immediately on the Synergy HT microplate reader.
(In general: A western blot detects proteins with antibodies after separation by electrophoresis.)

Another data set relates to HCT116 cells. The experiment in a line: Cell cycle analysis by flow cytometry. It counts as cell-based, human. The settings on record: 10 µM for 24 h. Here is the method: About 2 × 10^6 cells were collected by trypsin and washed once with PBS. Cells were pelleted and fixed in 100 µl 4% formaldehyde (Sigma-Aldrich, 47608) for 15 min at room temperature. Cells were washed by centrifugation with an excess of 1× PBS. Pellets were resuspended in 100 µl 1× PBS, then 900 µl of ice-cold methanol (Sigma-Aldrich, 34860) was added drop by drop while vortexing. Cells were incubated for 10 min on ice to permeabilize them. Cells were washed by centrifugation with excess of 1× PBS, pellets were resuspended in 100 µl anti-phosphorylated-histone H3 Ser10 conjugated to PE (Cell Signalling Technology, 5764) antibodies diluted 1:50 in 0.5% BSA PBS buffer and incubated for 1 h at room temperature protected from the light. […] Stained cells were analysed on the Cytoflex flow cytometer (Beckman Coulter).
Data were collected in 10^5 particle units and analysed with CytExpert v.2.4 software. […] These singlets were then analysed for DAPI (DNA content) and PE (phosphorylated histone H3 Ser10) staining intensities. Data were analysed to show the percentage of nuclei in the G1, S and G2/M phases using the DAPI channel and the percentage of cells specifically in G2 or M phase using the PE channel.
For orientation: In flow cytometry, cells or beads pass a laser one at a time.

Data set [2] has as its system RL952. The experiment in a line: CFA 10-14 day clonogenic assay. It counts as cell-based. To be noted: Homo sapiens, RL95-2.
A further data set deals with LS411N. The experiment in a line: CFA 10-14 day clonogenic assay. It counts as cell-based. The settings on record: Homo sapiens, LS-411N.
In another data set the test system is TGBC11TKB. Nature of the data set: CFA 10-14 day clonogenic assay. It counts as cell-based. The settings on record: Homo sapiens.
For a further data set, the system named is OC314. The experiment in a line: CFA 10-14 day clonogenic assay. It counts as cell-based. The settings on record: Homo sapiens, OC-314.
Data set [3] has as its system RL952. The experiment in a line: 4 day proliferation assay (CellTiter-Glo). To be noted: Homo sapiens, RL95-2, 96 h, read-out: 4 day assay GI50. In general terms: ATP-based viability assays read luminescence as a measure of living cells.
Another data set relates to CL34. Nature of the data set: 4 day proliferation assay (CellTiter-Glo). To be noted: Homo sapiens, 96 h, read-out: 4 day assay GI50.
The next data set has as its system HEC1A. Nature of the data set: 4 day proliferation assay (CellTiter-Glo). The settings on record: Homo sapiens, HEC-1-A, 96 h, read-out: 4 day assay GI50.

Structures are written as SMILES.

The term GI50 denotes the concentration giving 50% growth inhibition.

CYP3A4, sequence (P08684 whole entry, species assumed): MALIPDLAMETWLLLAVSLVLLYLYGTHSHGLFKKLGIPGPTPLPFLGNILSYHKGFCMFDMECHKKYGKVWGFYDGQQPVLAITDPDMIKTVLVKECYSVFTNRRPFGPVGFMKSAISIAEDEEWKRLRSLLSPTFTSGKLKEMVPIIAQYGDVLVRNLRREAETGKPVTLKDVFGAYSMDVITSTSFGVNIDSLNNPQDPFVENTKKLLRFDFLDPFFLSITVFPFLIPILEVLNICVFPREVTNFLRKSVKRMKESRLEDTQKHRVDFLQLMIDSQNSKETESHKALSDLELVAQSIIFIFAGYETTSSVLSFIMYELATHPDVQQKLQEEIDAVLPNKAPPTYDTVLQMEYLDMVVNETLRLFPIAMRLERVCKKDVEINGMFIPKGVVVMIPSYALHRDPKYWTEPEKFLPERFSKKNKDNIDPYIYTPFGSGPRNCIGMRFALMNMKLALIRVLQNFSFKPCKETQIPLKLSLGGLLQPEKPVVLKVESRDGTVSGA

With `CCc1c(N2CCN(C(=O)c3ncnc(C)c3O)CC2)c(=O)n2nc(C3=CCOCC3)nc2n1CC(=O)Nc1ccc(C(F)(F)F)cc1Cl` [HRO761], the “CYP3A4 TDI” value on CYP3A4 is reported as “No TDI”. Further, the “in vitro TK6 MNT” value in the data set on TK6 is “Negative”. In addition, in data set [1], the “WRN degradation, dependence on MSI/MSS status” value was “only in MSI cells”. Further, in the data set on HCT116 cells, the cell cycle effect entry is reported as “potent G2 cell cycle arrest”. For the same molecule, the GI50 with RL952 [2] came to 16 nM; in the data set with LS411N, 30 nM; in the data set with TGBC11TKB, 44 nM; in the data set on OC314, 4630 nM; with RL952 [3], 144 nM; with CL34, 231 nM. Also, the GI50 in the data set on HEC1A was no less than 10000 nM.

The values are drawn from PMC11078746 (Nature, 2024).
